Laboratory results taken from US11952593B2, “Detection and treatment of daughter number variations in cancer cells” (PharmacoGenetics Limited, priority 2020, dated 2024).

Key:
[1] = test system: HeLa cervical adenocarcinoma cells; test: Time-lapse microscopy count of multi-daughter divisions (DNV frequency), HeLa; type: cell-based, human; settings: wogonin 50 μM, 5-FU 20 μM
Protocol: (§1) To investigate DNVs, the human HepG2 hepatocellular carcinoma, HeLa cervical adenocarcinoma, and A549 lung adenocarcinoma cell lines, as well as the non-cancerous RPE1 line of hTRET-immortalized retina epithelial cells, were obtained from the American Type Culture Collection (ATCC, Manassas, Va., USA) and cultivated in Dulbecco's Modified Eagle Medium (DMEM) supplemented with 10% fetal bovine serum (Gemini Bio-Products, Sacramento. Calif.) under a humidified atmosphere of 5% C02 at 37° C. After 24 hours, the old medium was replaced by acidic DMEM growth medium buffered by 15 mM 2-(N-morpholino)-ethanesulfonic acid.HCl (MES) at pH 6.4, neutral DMEM growth medium buffered by 15 mM 3-(N-morpholino)propanesulfonic acid.HCl (MOPS) at pH 7.4, alkaline growth medium buffered by 15 mM tris(hydroxymethyl)aminomethane.HCl (Tris) at pH 8.4, or neutral DMEM growth medium containing wogonin (50 μM) or 5-FU (20 μM). Using phase contrast microscopy, time-lapse photographs were recorded at different positions of the wells at 15-minute intervals for 24 hours using the Nikon ECLIPSE Ti Live Cell Imaging Observatory, enabling the count of P1 through P8 patterns at the end of Stage 2 of the DNV process (FIG. 1). All the images were photographed at 100× magnification. Altemately, using fluorescence microscopy, the cells were seeded into 12 well plates at 1×10^3 per well and stained with Hoechst 33342 ([…], Thermofisher) for 30 minutes in an incubator at 37° C. After 30 minutes, culture medium was replaced by various treatment media and placed under the Nikon ECLIPSE Ti Live Cell Imaging Observatory for 24 hours. For the HeLa, HepG2 and A549 cells, the various treatments were also extended to 5 days. Because the RPE1 cells yielded no DNVs after 24 hours of drug treatment, its treatment periods were not extended beyond 24 hours. All the cells were manually traced and quantified using the ImageJ software. DNV frequencies were estimated by dividing the total number of multi-daughter ([…]) divisions by the total number of cell divisions. Fluorescence staining and time-lapse microscopy were employed to differentiate between the bi-, tri-, tetra- and penta-daughter cell divisions, and to estimate the percentages of the P1 through P8 patterns in the final daughter cells generated by each of the DNV events. GraphPad Prism 5.0 software was employed for statistical analysis, and the results were presented as the mean. Significance was determined using the Student t-test (two-tailed, unpaired/unequal variances).

[2] = test system: HepG2 hepatocellular carcinoma cells; test: Time-lapse microscopy count of multi-daughter divisions (DNV frequency), HepG2; type: cell-based, human; settings: wogonin 50 μM, 5-FU 20 μM
Protocol: as §1

[3] = test system: non-cancerous RPE1 retina epithelial cells; test: Time-lapse microscopy count of multi-daughter divisions (DNV frequency), RPE1; type: cell-based; settings: RPE1, 24 hours; wogonin 50 μM, 5-FU 20 μM
Protocol: as §1

O=c1[nH]cc(F)c(=O)[nH]1 [5-FU, 5-flurouracil]
Bi-daughter divisions, % of total divisions ([1]; 24 hours): 99.0% | Bi-daughter divisions, number ([1]; 24 hours): 3264 | Sum of Multi daughter Divisions, % of total mitotic divisions ([1]; 24 hours): 0.97% | Sum of Multi daughter Divisions, number ([1]; 24 hours): 32 | Tetra-daughter divisions, % of total divisions ([1]; 24 hours): 0.09% | Tetra-daughter divisions, number ([1]; 24 hours): 3 | Total number of observed divisions ([1]; 24 hours): 3296 (100) | Tri-daughter divisions, % of total divisions ([1]; 24 hours): 0.88% | Tri-daughter divisions, number ([1]; 24 hours): 29 | ≥Tetra-daughter divisions, number ([1]; 24 hours): 0 | Bi-daughter divisions, % of total divisions ([1]; 5 days): 91.8% | Bi-daughter divisions, number ([1]; 5 days): 143 | Sum of Multi-daughter Divisions, % of total mitotic divisions ([1]; 5 days): 8.3% | Sum of Multi-daughter Divisions, number ([1]; 5 days): 13 | Tetra-daughter divisions, number ([1]; 5 days): 0 | Total Divisions ([1]; 5 days): 156 (100) | Tri-daughter divisions, % of total divisions ([1]; 5 days): 8.3% | Tri-daughter divisions, number ([1]; 5 days): 13 | ≥Tetra-daughter divisions, number ([1]; 5 days): 0 | Bi-daughter divisions, % of total divisions ([2]; HepG2, 24 hours): 99.1% | Bi-daughter divisions, number ([2]; HepG2, 24 hours): 1995 | Sum of Multi daughter Divisions, % of total mitotic divisions ([2]; HepG2, 24 hours): 0.94% | Sum of Multi daughter Divisions, number ([2]; HepG2, 24 hours): 19 | Tetra-daughter divisions, % of total divisions ([2]; HepG2, 24 hours): 0.25% | Tetra-daughter divisions, number ([2]; HepG2, 24 hours): 5 | Total number of observed divisions ([2]; HepG2, 24 hours): 2014 (100) | Tri-daughter divisions, % of total divisions ([2]; HepG2, 24 hours): 0.69% | Tri-daughter divisions, number ([2]; HepG2, 24 hours): 14 | ≥Tetra-daughter divisions, number ([2]; HepG2, 24 hours): 0 | Bi-daughter divisions, % of total divisions ([2]; HepG2, 5 days): 90.6% | Bi-daughter divisions, number ([2]; HepG2, 5 days): 270 | Sum of Multi-daughter Divisions, % of total mitotic divisions ([2]; HepG2, 5 days): 9.30% | Sum of Multi-daughter Divisions, number ([2]; HepG2, 5 days): 28 | Tetra-daughter divisions, % of total divisions ([2]; HepG2, 5 days): 2.6% | Tetra-daughter divisions, number ([2]; HepG2, 5 days): 8 | Total Divisions ([2]; HepG2, 5 days): 298 (100) | Tri-daughter divisions, % of total divisions ([2]; HepG2, 5 days): 5.7% | Tri-daughter divisions, number ([2]; HepG2, 5 days): 17 | ≥Tetra-daughter divisions, % of total divisions ([2]; HepG2, 5 days): 1.0% | ≥Tetra-daughter divisions, number ([2]; HepG2, 5 days): 3 | Bi-daughter divisions, % of total divisions [3]: 100% | Bi-daughter divisions, number [3]: 15 | Sum of Multi-daughter Divisions, number [3]: 0 | Total number of observed divisions [3]: 15 | Tri-daughter divisions, number [3]: 0

COc1c(O)cc(O)c2c(=O)cc(-c3ccccc3)oc12 [Wogonin, wogonin]
Bi-daughter divisions, % of total divisions ([1]; 24 hours): 98.3% | Bi-daughter divisions, number ([1]; 24 hours): 3041 | Sum of Multi daughter Divisions, % of total mitotic divisions ([1]; 24 hours): 1.70% | Sum of Multi daughter Divisions, number ([1]; 24 hours): 53 | Tetra-daughter divisions, % of total divisions ([1]; 24 hours): 0.19% | Tetra-daughter divisions, number ([1]; 24 hours): 6 | Total number of observed divisions ([1]; 24 hours): 3094 (100) | Tri-daughter divisions, % of total divisions ([1]; 24 hours): 1.54% | Tri-daughter divisions, number ([1]; 24 hours): 47 | ≥Tetra-daughter divisions, number ([1]; 24 hours): 0 | Bi-daughter divisions, % of total divisions ([1]; 5 days): 84% | Bi-daughter divisions, number ([1]; 5 days): 205 | Sum of Multi-daughter Divisions, % of total mitotic divisions ([1]; 5 days): 16.3% | Sum of Multi-daughter Divisions, number ([1]; 5 days): 40 | Tetra-daughter divisions, % of total divisions ([1]; 5 days): 2.4% | Tetra-daughter divisions, number ([1]; 5 days): 6 | Total Divisions ([1]; 5 days): 245 (100) | Tri-daughter divisions, % of total divisions ([1]; 5 days): 13.0% | Tri-daughter divisions, number ([1]; 5 days): 32 | ≥Tetra-daughter divisions, % of total divisions ([1]; 5 days): 0.8% | ≥Tetra-daughter divisions, number ([1]; 5 days): 2 | Bi-daughter divisions, % of total divisions ([2]; HepG2, 24 hours): 97.0% | Bi-daughter divisions, number ([2]; HepG2, 24 hours): 2482 | Sum of Multi daughter Divisions, % of total mitotic divisions ([2]; HepG2, 24 hours): 2.97% | Sum of Multi daughter Divisions, number ([2]; HepG2, 24 hours): 76 | Tetra-daughter divisions, % of total divisions ([2]; HepG2, 24 hours): 0.70% | Tetra-daughter divisions, number ([2]; HepG2, 24 hours): 18 | Total number of observed divisions ([2]; HepG2, 24 hours): 2558 (100) | Tri-daughter divisions, % of total divisions ([2]; HepG2, 24 hours): 2.19% | Tri-daughter divisions, number ([2]; HepG2, 24 hours): 56 | ≥Tetra-daughter divisions, % of total divisions ([2]; HepG2, 24 hours): 0.08% | ≥Tetra-daughter divisions, number ([2]; HepG2, 24 hours): 2 | Bi-daughter divisions, % of total divisions ([2]; HepG2, 5 days): 83.9% | Bi-daughter divisions, number ([2]; HepG2, 5 days): 262 | Sum of Multi-daughter Divisions, % of total mitotic divisions ([2]; HepG2, 5 days): 16.0% | Sum of Multi-daughter Divisions, number ([2]; HepG2, 5 days): 50 | Tetra-daughter divisions, % of total divisions ([2]; HepG2, 5 days): 3.8% | Tetra-daughter divisions, number ([2]; HepG2, 5 days): 12 | Total Divisions ([2]; HepG2, 5 days): 312 (100) | Tri-daughter divisions, % of total divisions ([2]; HepG2, 5 days): 16.0% | Tri-daughter divisions, number ([2]; HepG2, 5 days): 50 | ≥Tetra-daughter divisions, % of total divisions ([2]; HepG2, 5 days): 2.5% | ≥Tetra-daughter divisions, number ([2]; HepG2, 5 days): 8 | Sum of Multi-daughter Divisions, % of total mitotic divisions ([2]; HepG2, 5 days, listed as wogonin): 18.0% | Bi-daughter divisions, % of total divisions [3]: 100% | Bi-daughter divisions, number [3]: 106 | Sum of Multi-daughter Divisions, number [3]: 0 | Total number of observed divisions [3]: 106 | Tri-daughter divisions, number [3]: 0
